Data taken from ChEMBL document CHEMBL1139735, “Inhibitors of unactivated p38 MAP kinase” (Bioorg Med Chem Lett, 2006).
One block for each compound: values may come before it. The source made the active and inactive calls. The rule behind the calls is not given here.

Key:
PBMC = experiment: Inhibition of TNF production in human PBMC; assay type: functional, cell-based
Mus musculus [1] = experiment: Toxicity in mouse at 200 mg/kg; assay type: organism-based; design: dose 200 mg/kg; details: in vivo
MAP kinase p38 [2] = target: T1, MAP kinase p38 (Homo sapiens, UniProt O15264+Q15759+Q16539+P53778); experiment: Inhibition of p38 kinase; assay type: protein assay
MAP kinase p38 [3] = target: T1, MAP kinase p38; experiment: Inhibition of p38 phosphorylation; assay type: protein assay
Mus musculus [4] = experiment: Inhibition of LPS-induced TNF production in mouse at 10 mg/kg after 2 hrs; assay type: functional
Mus musculus [5] = experiment: Inhibition of TNF production in orally dosed mouse model; assay type: functional; details: po
Mus musculus [6] = experiment: Inhibition of TNF production in mouse at 10 mg/kg; assay type: functional
MAP kinase p38 [7] = target: T1, MAP kinase p38; experiment: Inhibition of activated p38 kinase up to 10 uM; assay type: protein assay
[8] = target: T2, 5-hydroxytryptamine receptor 3A (Homo sapiens, UniProt P46098); experiment: Inhibition of 5HT3 receptor
T2 sequence (P46098 whole entry): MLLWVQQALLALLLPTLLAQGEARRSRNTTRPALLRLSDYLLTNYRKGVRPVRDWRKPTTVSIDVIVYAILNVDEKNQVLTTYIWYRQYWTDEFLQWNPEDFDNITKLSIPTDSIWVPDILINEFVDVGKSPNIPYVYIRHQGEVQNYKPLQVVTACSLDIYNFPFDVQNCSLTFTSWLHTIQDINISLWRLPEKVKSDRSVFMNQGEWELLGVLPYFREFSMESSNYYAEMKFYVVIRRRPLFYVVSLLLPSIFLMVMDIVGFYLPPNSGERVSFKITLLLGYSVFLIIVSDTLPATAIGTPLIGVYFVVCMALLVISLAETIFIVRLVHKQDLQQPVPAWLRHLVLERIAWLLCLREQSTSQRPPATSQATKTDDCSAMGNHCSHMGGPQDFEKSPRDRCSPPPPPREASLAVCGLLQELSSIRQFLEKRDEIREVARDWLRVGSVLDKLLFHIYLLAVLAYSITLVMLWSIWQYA

[9] = target: Mitogen-activated protein kinase 14 (Homo sapiens, UniProt Q16539); experiment: Binding affinity to p38alpha
Mitogen-activated protein kinase 14, sequence (Q16539 whole entry): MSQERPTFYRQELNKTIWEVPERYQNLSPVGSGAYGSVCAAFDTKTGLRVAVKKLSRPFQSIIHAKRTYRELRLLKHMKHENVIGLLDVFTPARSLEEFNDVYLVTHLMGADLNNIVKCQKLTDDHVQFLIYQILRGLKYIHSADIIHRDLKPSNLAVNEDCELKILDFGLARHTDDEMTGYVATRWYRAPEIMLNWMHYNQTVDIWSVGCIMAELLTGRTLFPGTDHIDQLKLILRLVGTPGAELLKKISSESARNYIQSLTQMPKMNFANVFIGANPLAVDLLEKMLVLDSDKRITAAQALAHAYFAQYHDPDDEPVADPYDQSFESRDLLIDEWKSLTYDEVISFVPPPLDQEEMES

Cytochrome P450 1A2 = target: T3, Cytochrome P450 1A2 (Homo sapiens, UniProt P05177); experiment: Inhibition of CYP1A2 below 15 uM; assay type: ADME
T3 sequence (P05177 whole entry): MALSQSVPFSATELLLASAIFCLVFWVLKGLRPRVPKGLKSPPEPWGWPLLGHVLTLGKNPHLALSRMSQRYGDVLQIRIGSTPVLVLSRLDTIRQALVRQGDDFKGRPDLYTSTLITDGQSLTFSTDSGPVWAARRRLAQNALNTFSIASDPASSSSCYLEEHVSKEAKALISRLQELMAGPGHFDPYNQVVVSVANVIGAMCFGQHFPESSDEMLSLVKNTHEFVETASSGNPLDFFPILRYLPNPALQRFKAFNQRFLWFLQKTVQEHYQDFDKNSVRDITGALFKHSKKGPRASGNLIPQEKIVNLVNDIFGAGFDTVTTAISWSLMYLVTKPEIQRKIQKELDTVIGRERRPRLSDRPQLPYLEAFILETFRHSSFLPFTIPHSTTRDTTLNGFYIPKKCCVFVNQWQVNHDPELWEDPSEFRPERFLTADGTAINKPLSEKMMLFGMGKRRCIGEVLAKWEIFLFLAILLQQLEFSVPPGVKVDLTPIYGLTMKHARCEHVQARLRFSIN

Cytochrome P450 2D6 = Cytochrome P450 2D6 (Homo sapiens, UniProt P10635); experiment: Inhibition of CYP2D6 below 15 uM; assay type: ADME
Cytochrome P450 2D6, sequence (P10635 whole entry): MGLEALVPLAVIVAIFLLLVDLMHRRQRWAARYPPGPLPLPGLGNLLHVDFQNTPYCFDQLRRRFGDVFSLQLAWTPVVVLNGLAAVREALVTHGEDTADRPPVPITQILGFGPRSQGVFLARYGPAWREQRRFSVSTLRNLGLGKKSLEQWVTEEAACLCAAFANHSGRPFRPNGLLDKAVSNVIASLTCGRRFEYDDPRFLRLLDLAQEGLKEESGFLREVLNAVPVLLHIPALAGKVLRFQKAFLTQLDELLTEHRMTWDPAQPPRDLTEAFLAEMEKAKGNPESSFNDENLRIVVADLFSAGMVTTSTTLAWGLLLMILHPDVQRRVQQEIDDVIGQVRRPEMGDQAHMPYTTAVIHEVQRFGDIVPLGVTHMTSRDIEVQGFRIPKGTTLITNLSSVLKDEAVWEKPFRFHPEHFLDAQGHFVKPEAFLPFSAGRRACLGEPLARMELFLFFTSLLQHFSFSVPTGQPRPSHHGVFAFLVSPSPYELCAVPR

Cytochrome P450 2C9 = Cytochrome P450 2C9 (Homo sapiens, UniProt P11712); experiment: Inhibition of CYP2C9; assay type: ADME
Cytochrome P450 2C9, sequence (P11712 whole entry): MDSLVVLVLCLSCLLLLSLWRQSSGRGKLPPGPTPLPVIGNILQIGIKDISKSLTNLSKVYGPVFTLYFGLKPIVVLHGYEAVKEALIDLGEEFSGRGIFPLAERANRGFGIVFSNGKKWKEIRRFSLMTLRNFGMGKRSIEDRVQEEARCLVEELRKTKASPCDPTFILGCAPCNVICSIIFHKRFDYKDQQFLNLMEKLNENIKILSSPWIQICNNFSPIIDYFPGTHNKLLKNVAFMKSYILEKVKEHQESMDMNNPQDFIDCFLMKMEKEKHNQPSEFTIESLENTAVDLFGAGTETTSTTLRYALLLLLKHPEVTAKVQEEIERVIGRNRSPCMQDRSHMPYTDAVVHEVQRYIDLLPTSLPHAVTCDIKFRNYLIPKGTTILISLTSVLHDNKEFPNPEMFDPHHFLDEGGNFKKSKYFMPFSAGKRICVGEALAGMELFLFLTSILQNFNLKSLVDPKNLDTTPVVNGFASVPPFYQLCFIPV

Cytochrome P450 3A4 = Cytochrome P450 3A4 (Homo sapiens, UniProt P08684); experiment: Inhibition of CYP3A4 below 15 uM; assay type: ADME
Cytochrome P450 3A4, sequence (P08684 whole entry): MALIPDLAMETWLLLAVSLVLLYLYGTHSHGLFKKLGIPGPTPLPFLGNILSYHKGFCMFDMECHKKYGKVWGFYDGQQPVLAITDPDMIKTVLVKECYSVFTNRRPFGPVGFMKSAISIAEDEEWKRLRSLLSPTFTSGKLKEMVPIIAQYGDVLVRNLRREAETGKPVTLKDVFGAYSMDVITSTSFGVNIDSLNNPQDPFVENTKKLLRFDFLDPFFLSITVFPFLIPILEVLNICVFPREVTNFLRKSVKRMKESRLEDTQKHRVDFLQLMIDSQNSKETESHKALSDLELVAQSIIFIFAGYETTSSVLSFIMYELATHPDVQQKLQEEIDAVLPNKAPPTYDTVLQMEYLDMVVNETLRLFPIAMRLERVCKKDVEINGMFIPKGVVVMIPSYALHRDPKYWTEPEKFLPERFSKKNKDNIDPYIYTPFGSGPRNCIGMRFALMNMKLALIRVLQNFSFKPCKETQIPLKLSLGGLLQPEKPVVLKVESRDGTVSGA

Cytochrome P450 2C19 = Cytochrome P450 2C19 (Homo sapiens, UniProt P33261); experiment: Inhibition of CYP2C19; assay type: ADME
Cytochrome P450 2C19, sequence (P33261 whole entry): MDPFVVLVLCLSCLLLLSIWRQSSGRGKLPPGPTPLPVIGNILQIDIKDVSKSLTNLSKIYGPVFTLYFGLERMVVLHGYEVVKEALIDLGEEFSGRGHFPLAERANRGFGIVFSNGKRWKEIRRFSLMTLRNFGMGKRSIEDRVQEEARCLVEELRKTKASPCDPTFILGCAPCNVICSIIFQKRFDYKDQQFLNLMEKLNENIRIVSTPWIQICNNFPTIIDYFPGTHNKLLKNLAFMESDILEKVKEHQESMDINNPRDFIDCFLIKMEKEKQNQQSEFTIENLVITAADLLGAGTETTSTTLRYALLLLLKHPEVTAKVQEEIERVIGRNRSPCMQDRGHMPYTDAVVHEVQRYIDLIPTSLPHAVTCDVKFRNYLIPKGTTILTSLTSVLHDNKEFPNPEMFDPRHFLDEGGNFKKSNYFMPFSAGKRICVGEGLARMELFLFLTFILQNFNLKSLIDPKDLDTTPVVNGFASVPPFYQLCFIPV

Mus musculus [10] = experiment: Inhibition of collagen-induced arthritis in mouse at 30 mg/kg, po; assay type: functional
Rattus norvegicus = experiment: Reduction of swelling in adjuvant-induced arthritis rat at 30 mg/kg, po; assay type: functional; design: scale not given: the % may be the effect or the level left
[11] = Bioavailability in mouse; assay type: ADME, organism-based; details: in vivo
[12] = Bioavailability in rat; assay type: ADME, organism-based; details: in vivo
[13] = Bioavailability in dog; assay type: ADME, organism-based, Canis lupus familiaris; details: in vivo
[14] = Bioavailability in monkey; assay type: ADME, organism-based, Macaca mulatta; details: rhesus monkey, in vivo

Structure (SMILES): COC(=O)c1c(-c2ccc(F)cc2)c(-c2ccncc2)c(NCCN2CCCCC2)n1C
IC50 (PBMC): 92 nM

Structure (SMILES): COC(=O)c1c(-c2ccc(F)cc2)c(-c2ccncc2)c(NC2CCNCC2)n1C
IC50 (PBMC): 315 nM

Structure (SMILES): CCN1CCN(c2c(-c3ccncc3)c(-c3ccc(F)cc3)c(C(=O)OC)n2C)CC1
IC50 (PBMC): 135 nM | Activity (Mus musculus [1]): Non-toxic

Structure (SMILES): CC(=O)c1c(-c2ccc(F)cc2)c(-c2ccncc2)c(N2CCN(C(C)=O)CC2)n1C
IC50 (PBMC): 43 nM | Activity (Mus musculus [1]): Non-toxic

Structure (SMILES): COC(=O)c1c(-c2ccc(F)cc2)c(-c2ccncc2)c(N2CCN(C)CC2)n1C
IC50 (PBMC): 95 nM | Activity (Mus musculus [1]): Non-toxic

Structure (SMILES): COC(=O)c1c(-c2ccc(F)cc2)c(-c2ccncc2)c(NCCN(C)C)n1C
IC50 (PBMC): 98 nM

Structure (SMILES): CCCN1CCN(c2c(-c3ccncc3)c(-c3ccc(F)cc3)c(C(=O)OC)n2C)CC1
IC50 (PBMC): 901 nM

IC50 (MAP kinase p38 [2]): > 10000 nM
Structure (SMILES): CCOC(=O)c1c(-c2cccc(C(F)(F)F)c2)c(-c2ccncc2)c(N2CCNCC2)n1C
IC50 (PBMC): 21 nM

Structure (SMILES): CNC(=O)c1c(-c2ccc(F)cc2)c(-c2ccncc2)c(N2CCNCC2)n1C
IC50 (PBMC): 779 nM

Activity (MAP kinase p38 [3]): Active
Structure (SMILES): CC(=O)N1CCN(c2c(-c3ccncc3)c(-c3ccc(F)cc3)c(C#N)n2C)CC1 [listing 1 of 2 here]

Structure (SMILES): COC(=O)c1c(-c2ccc(F)cc2)c(-c2ccncc2)c(N2CCOCC2)n1C
IC50 (PBMC): 47 nM

Structure (SMILES): CCC(=O)c1c(-c2ccc(F)cc2)c(-c2ccncc2)c(N2CCNCC2)n1C
IC50 (PBMC): 67 nM

Structure (SMILES): CC(=O)c1c(-c2ccc(F)cc2)c(-c2ccncc2)c(N2CCN(C)CC2)n1C
IC50 (PBMC): 529 nM | inhibition in vivo at 10 mg/kg (Mus musculus [4]): 40%

Structure (SMILES): COC(=O)c1c(-c2ccc(F)cc2)c(-c2ccncc2)c(N(C)CCN2CCOCC2)n1C
IC50 (PBMC): 38 nM | ED50 (Mus musculus [5]): 3 mg/kg | inhibition in vivo at 10 mg/kg (Mus musculus [6]): 78%

Structure (SMILES): COC(=O)c1c(-c2ccc(F)cc2)c(-c2ccncc2)c(NCCN2CCOCC2)n1C
IC50 (PBMC): 50 nM

Structure (SMILES): CC(=O)C(=O)c1c(-c2ccc(F)cc2)c(-c2ccncc2)c(N2CCNCC2)n1C
IC50 (PBMC): 28 nM | inhibition in vivo at 10 mg/kg (Mus musculus [6]): 52%

Structure (SMILES): COC(=O)c1c(-c2ccc(F)cc2)c(-c2ccncc2)c(N2CCCC2)n1C
IC50 (PBMC): 17 nM

Activity (MAP kinase p38 [7]): inactive | IC50 [8]: 275 nM
Structure (SMILES): COC(=O)c1c(-c2ccc(F)cc2)c(-c2ccncc2)c(N2CCNCC2)n1C
IC50 (PBMC): 33 nM | ED50 (Mus musculus [5]): 7.5 mg/kg | Activity (Mus musculus [1]): Toxic

IC50 (MAP kinase p38 [2]): 2000 nM | Kd [9]: 100 nM | Activity (Cytochrome P450 1A2): Not Active | Activity (Cytochrome P450 2D6): Not Active | IC50 (Cytochrome P450 2C9): 4000 nM | Activity (Cytochrome P450 3A4): Not Active | IC50 (Cytochrome P450 2C19): 8000 nM
Structure (SMILES): CC(=O)N1CCN(c2c(-c3ccncc3)c(-c3ccc(F)cc3)c(C#N)n2C)CC1 [listing 2 of 2 here]
IC50 (PBMC): 123 nM | ED50 (Mus musculus [5]): 0.5 mg/kg | Activity (Mus musculus [1]): Non-toxic | inhibition in vivo at 30 mg/kg (Mus musculus [10]): 50% | Activity (Rattus norvegicus): 91%

Structure (SMILES): Cn1cc(-c2ccc(F)cc2)c(-c2ccncc2)c1N1CCNCC1
IC50 (PBMC): 15 nM

IC50 (MAP kinase p38 [2]): > 10000 nM
Structure (SMILES): CCOC(=O)c1c(-c2cc(F)cc(F)c2)c(-c2ccncc2)c(N2CCNCC2)n1C
IC50 (PBMC): 93 nM | inhibition in vivo at 10 mg/kg (Mus musculus [6]): 79%

Structure (SMILES): CC(=O)c1c(-c2ccc(F)cc2)c(-c2ccncc2)c(N2CCNCC2)n1C
IC50 (PBMC): 40 nM | Activity (Mus musculus [1]): Non-toxic

Structure (SMILES): COC(=O)c1c(-c2ccc(F)cc2)c(-c2ccncc2)c(C2=CCNCC2)n1C
IC50 (PBMC): 72 nM | Activity (Mus musculus [1]): Non-toxic

IC50 (MAP kinase p38 [2]): 3939 nM
Structure (SMILES): CCOC(=O)c1c(-c2ccc(C)cc2)c(-c2ccncc2)c(N2CCNCC2)n1C
IC50 (PBMC): 60 nM | inhibition in vivo at 10 mg/kg (Mus musculus [6]): 79%

Structure (SMILES): CC(C)NC(=O)c1c(-c2ccc(F)cc2)c(-c2ccncc2)c(N2CCNCC2)n1C
IC50 (PBMC): 10000 nM

bioavailability [11]: 70% | bioavailability [12]: 70% | bioavailability [13]: 70% | bioavailability [14]: 70%
Structure (SMILES): CC(=O)N1CCN(c2c(-c3ccncc3)c(-c3ccc(F)cc3)c(C#N)n2C)CC1.Cl

Structure (SMILES): Cn1c(C(=O)c2ccccc2)c(-c2ccc(F)cc2)c(-c2ccncc2)c1N1CCNCC1
IC50 (PBMC): 660 nM

Structure (SMILES): COC(=O)c1c(-c2ccc(F)cc2)c(-c2ccncc2)c(N2CCN(C(C)C)CC2)n1C
IC50 (PBMC): 1980 nM

Structure (SMILES): Cn1c(C#N)c(-c2ccc(F)cc2)c(-c2ccncc2)c1N1CCNCC1
IC50 (PBMC): 18 nM | ED50 (Mus musculus [5]): 5 mg/kg

Structure (SMILES): CN1CCN(c2c(-c3ccncc3)c(-c3ccc(F)cc3)c(C#N)n2C)CC1
IC50 (PBMC): 80 nM
